Results from patent US10328141B2, “Synthetic vaccines against Streptococcus pneumoniae type 1” (MAX-PLANCK-GESELLSCHAFT ZUR FÖRDERUNG DER WISSENSCHAFTEN …, priority 2013, dated 2019).

Assays:
[1] = system: rabbit anti-Streptococcus pneumoniae type 1 typing serum; test: Glycan microarray binding of rabbit anti-SP1 typing serum to immobilised saccharides; conditions: saccharides coated on modified GAPS II or CodeLink NHS slides; FIGS. 6-8
Protocol: (§1) Microarray slides coated with the saccharides of general formula (I) were synthesized by conjugating the saccharides of general formula (I) to said modified microarray slides, and incubated with rabbit anti-Streptococcus pneumoniae type 1 typing serum […] in the presence or absence of native Streptococcus pneumoniae type 1 polysaccharide.
Maleimide-functionalized microarrays were produced by submerging amine-coated slides (GAPS II slides, Corning) in 6-maleimidohexanoic acid N-hydroxysuccinimide ester (2 mM) in dry DMF with diisopropylethylamine (2.5% v/v) for 24 h at room temperature. Slides were washed three times with water and three times with ethanol, centrifuged to dryness, and stored under argon until spotting. Diluted saccharides of general formula (I) were printed onto the modified microarray slides at 0.4 nL per spot by an automatic piezoelectric arraying robot (Scienion, Berlin, Germany). For completion of the immobilization reaction, printed slides were stored for 24 h in a humidified chamber.
Microarray slides were washed three times with water. Unreacted maleimide was quenched by submerging the slides in β-mercaptoethanol (0.1%, v/v) in PBS for 1 h at room temperature. Slides were washed three times with water and with ethanol, centrifuged to dryness, and blocked with BSA (1%, w/v) in PBS for 1 h at room temperature. […]

[2] = system: human pneumococcal serum 007sp; test: Glycan microarray binding of human pneumococcal reference serum 007sp to immobilised saccharides; conditions: saccharides coated on modified CodeLink NHS slides; pooled sera of 287 humans immunized with Pneumovax; FIG. 5
Protocol: as §1
[…] Slides were washed three times with water and three times with ethanol, centrifuged to dryness, and stored under argon until spotting. Diluted saccharides of general formula (I) were printed onto the modified microarray slides at 0.4 nL per spot by an automatic piezoelectric arraying robot (Scienion, Berlin, Germany). For completion of the immobilization reaction, printed slides were stored for 24 h in a humidified chamber.
Microarray slides were washed three times with water. Unreacted maleimide was quenched by submerging the slides in β-mercaptoethanol (0.1%, v/v) in PBS for 1 h at room temperature. Slides were washed three times with water and with ethanol, centrifuged to dryness, and blocked with BSA (1%, w/v) in PBS for 1 h at room temperature. Blocked slides were washed (2×PBS, 3×water), centrifuged, and incubated with the sera dilutions.
CodeLink NHS slides were incubated for 24 h (1% w/v in PBS) at 4° C. […]

SMILES	binding of rabbit anti-Streptococcus pneumoniae type 1 typing serum to saccharide structure on microarray slides [1]	binding of human pneumococcal serum 007sp to saccharide structure on microarray slides [2]
CC(=O)N[C@H]1[C@@H](O[C@@H]2[C@H](O)[C@@H](O)[C@@H](O[C@H]3[C@@H](O)[C@@H](C(=O)O)O[C@H](O)[C@@H]3O)O[C@@H]2C(=O)O)O[C@H](C)[C@H](N)[C@@H]1O [α-2,4,6-trideoxy-4-amino-D-GalNAc-(1→4)-α-D-GalAp-(1→3)-α-D-GalAp]	bound	bound
O=C(O)[C@H]1O[C@H](O[C@H]2[C@@H](O)[C@@H](C(=O)O)O[C@H](O)[C@@H]2O)[C@H](O)[C@@H](O)[C@H]1O [α-D-GalAp-(1→3)-α-D-GalAp]	bound	bound
